In patent US20200237871A1, “METHODS FOR MITIGATING LIVER INJURY AND PROMOTING LIVER HYPERTROPHY, REGENERATION AND CELL ENGRAFTMENT IN CONJUNCTION WITH RADIATION AND/OR RADIOMIMETIC TREATMENTS” (Janssen Pharmaceutica NV, priority 2019, published 2020):

What was measured:
[1] = tested on: DPPIV−/− knockout mice; assay: LSEC engraftment/repopulation of irradiated liver by DPPIV staining (Examples 2 and 3); type: in vivo, mouse; conditions: targeted liver irradiation (50 Gy)
Method: 8-12-week-old male and female Di-peptyl peptidase IV (DPPIV) −/− knockout mice and 8-12-week-old male and female C57Bl6 mice were used in this study. Animals were weighed in the beginning of the experiment and before tissue collection. All animals were housed in the Institute for Animal Studies at Albert Einstein College of medicine and fed regular rodent chow. All experiments were performed to according to protocols approved by Institutional Animal Care and Use Committee at Albert Einstein College of Medicine. Animals were made cirrhotic using CCl4 administration (intraperitoneal [IP] injections twice a week for at least 11 weeks).
Image-guided external beam irradiation was performed using a small animal radiation research platform (SARRP, Xstrahl Inc., Suwanee, Ga.). Mice were given gastrografin contrast through gavage to improve visualization of the gastrointestinal (GI) tract. After approximately 2 minutes, mice were positioned on a tubular couch and anesthetized with ˜2% Isofluorane (Isothesia, USP) in 2 L/min pure oxygen. A cone-beam computed tomography (CBCT) scan was acquired and a treatment plan irradiating the median lobe and right lobe was generated using the MuriPlan software. […] Within the targeted lobes, the position of the isocenter was chosen to minimize irradiation of the GI tract, spine, and heart (the maximum dose to these organs was kept below 10 Gy). Targets were irradiated with 50 Gy X-rays at 220 kVp energy and 13 mA tube current (dose rate of 2.4-2.5 Gy/min) using a 1 mm copper filter for beam hardening.
TPOm was diluted in sterile PBS to a 10 mg/ml stock. The stock was stored at −20° C. and allowed to come to room temperature prior to administration. TPOm was administered as a single dose (300 μg/kg) via subcutaneous injection 10 minutes after the transplant procedure.
DPPIV was selected as a marker for engraftment of exogenous LSECs in the DPPIV (−/−) animals. […] Slide imaging was done using a Perkin Elmer P250 High Capacity Slide Scanner.
LSECs were isolated from the single-cell suspension using CD146 microbeads (Miltenyi Biotec GmbH #130-092-007).
Following isolation of LSECs, 500×10^5 LSECs are transplanted via intrasplenic injection into healthy adult mice anesthetized with Isoflurane (Isothesia, USP) 24 hrs post HIR. Buprenorphine is given post-op as an analgesic.
To test the efficacy of TPOm as an agent that can cause LSEC engraftment, DPPIV−/− knockout mice received 50GY hepatic irradiation (HIR) to the median and right lobes of the liver using external-beam CT-guided x-ray irradiation, and LSECs that express DPPIV (FIG. 2A).
The methods were identical to those described above with the exception that the LSEC transplant was administered 4-5 days post irradiation and the TPOm or Romiplostim were administered approximately 10 minutes post LSEC transplant.

[2] = tested on: DPPIV KO mice; assay: Engraftment of transplanted LSECs and hepatocytes by DPPIV immunostaining after HIR (Example 7); type: in vivo, mouse; conditions: Study A; 2 months after HIR; 50 Gy; LSECs 4 or 5 days after HIR; 300 μg/kg intraperitoneally 10 minutes after LSEC transplantation
Method: 8-12-week-old male Di-peptyl peptidase IV knockout (Dppiv^−/−) mice and 8-12-week-old male C57BL/6 mice were used in this study.
The methods were identical to Experiment 5 as described above; including the preparation of test articles (solutions of RWJ-800088), isolation and transplant of LSECs, and Hepatic irradiation. In addition, Romiplostim was purchased from pharmacy and came in 250 μg powder. It was reconstituted per manufacturers description using solvent for solution for injection. After reconstitution, a deliverable volume of 0.5 mL solution contained 250 μg of romiplostim (500 μg/mL).
Animals were weighed in the beginning of the experiment.
The mice were transplanted with DPPIV^+ 5×10^5 liver sinusoidal endothelial cells (LSECs) intrasplenically 4 or 5 days later. The mice were then injected with 300 μg/kg of RWJ-800088 or Romiplostim intraperitoneally 10 minutes after LSEC transplantation as shown in Table 7.
The mice were then monitored until they made a full recovery and returned to the cage. The mice were followed for 2 and 5 months and necropsied. The liver was excised and prepared for the frozen section. The immunostaining of DPPIV activity was performed to examine the repopulation of the transplanted DPPIV^+ cells in the liver. […]

Question: For romiplostim [reference compound], which “Engraftment when LSEC transplant is administered 24 hours post irradiation” value [1] is on record?
Answer: Yes

Question: And the “Engraftment when LSEC transplant is administered 4-5 days post irradiation” value ([1]; drug approximately 10 minutes post LSEC transplant)?
Answer: Yes

Question: What about the “repopulation of LSECs in the irradiated liver tissue (DPPIV immunostaining)” value [2] of the same substance?
Answer: repopulation of LSECs in the irradiated liver tissue was observed
